In the supplement of paper PMC11368000 one finds POD vs vehicle data, which are given here for twelve molecules.

Where only a bound is given, the exact number is not on record here.

The subject of one assay is 1392 (donor line of iPSC-derived cardiomyocytes). Nature of the assay: POD (EC10) for decrease in total cell number (cytotoxicity) vs vehicle; higher = less potent (higher point of departure). The settings on record: exposure time: 90 min. As to the method: (§1)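 Human iPSC-derived cardiomyocytes from 16 donors were exposed for 90 min at 37 °C to each PFAS at 0.1, 1, 10 and 100 µM in 0.5% DMSO, 384-well plates. Kinetic Ca2+ flux (FLIPR) and Hoechst nuclei counts were normalised to vehicle wells and fitted with a hierarchical Bayesian Hill model to give donor-specific PODs: EC05 for beat-rate increase or decrease and for decay-to-rise ratio increase (QT proxy), EC95 for peak-frequency loss (asystole), EC10 for total cell number loss. 0.03 µM is the lower bound.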
Take `O=C([O-])C(F)(F)C(F)(F)C(F)(F)C(F)(F)C(F)(F)C(F)(F)C(F)(F)F.[NH4+]` [Ammonium_perfluorooctanoate]: the POD vs vehicle is greater than 100 µM.
The same measure, in the same setting: under `OCC(F)(F)OC(F)(F)C(F)(F)OC(F)(F)C(F)(F)OC(F)(F)F` [Fluorinated_triethylene_glycol_monomethyl_ether] stands 2.04 µM; under `NC(=O)C(F)(F)C(F)(F)C(F)(F)F` [Heptafluorobutyramide], greater than 100 µM; under `O=C(O)C(F)(F)C(F)(F)C(F)(F)C(F)(F)C(=O)O` [Octafluoroadipic_acid], 54.6 µM.
On the same count and under the same terms, next, `O=C(O)C(F)(F)OC(F)(F)C(F)(F)OC(F)(F)C(F)(F)OC(F)(F)C(F)(F)C(F)(F)C(F)(F)F` [Perfluoro-3,6,9-trioxatridecanoic_acid]: greater than 100 µM; `O=C(O)C(F)(F)C(F)(F)C(F)(F)C(F)(F)C(F)(F)C(F)(F)F` [Perfluoroheptanoic_acid]: greater than 100 µM.
Still for that read-out and setting: under `NC(=O)C(F)(F)C(F)(F)C(F)(F)C(F)(F)C(F)(F)C(F)(F)C(F)(F)F` [Perfluorooctanamide] stands greater than 100 µM; under `N=C(N)C(F)(F)C(F)(F)C(F)(F)C(F)(F)C(F)(F)C(F)(F)C(F)(F)F` [Perfluorooctanamidine], greater than 100 µM.

In another assay the test system is 1518 (donor line of iPSC-derived cardiomyocytes). The assay is described as above. As to conditions: exposure time: 90 min. As to the method: as §1
`OCC(F)(F)C(F)(F)C(F)(F)C(F)F` [1H,1H,5H-Perfluoropentanol] displayed a POD vs vehicle greater than 100 µM.
On the same count and under the same terms, under `O=S(=O)(OCC(F)(F)F)C(F)(F)C(F)(F)C(F)(F)C(F)(F)F` [2,2,2-Trifluoroethyl_perfluorobutanesulfonate] stands greater than 100 µM.
The same measure, in the same setting: under `OCCC(F)(F)C(F)(F)C(F)(F)C(F)(F)F` [4:2 Fluorotelomer alcohol] stands greater than 100 µM; under `O=C([O-])C(F)(F)C(F)(F)C(F)(F)C(F)(F)C(F)(F)C(F)(F)C(F)(F)F.[NH4+]` [Ammonium_perfluorooctanoate], greater than 100 µM; under `NC(=O)C(F)(F)C(F)(F)C(F)(F)F` [Heptafluorobutyramide], greater than 100 µM.
On the same count and under the same terms, next, `O=C(O)C(F)(F)OC(F)(F)C(F)(F)OC(F)(F)C(F)(F)OC(F)(F)C(F)(F)C(F)(F)C(F)(F)F` [Perfluoro-3,6,9-trioxatridecanoic_acid]: greater than 100 µM; `O=C(O)C(F)(F)C(F)(F)C(F)(F)C(F)(F)C(F)(F)C(F)(F)F` [Perfluoroheptanoic_acid]: 23.6 µM.
Consider `NC(=O)C(F)(F)C(F)(F)C(F)(F)C(F)(F)C(F)(F)C(F)(F)C(F)(F)F` [Perfluorooctanamide], for which the POD vs vehicle is greater than 100 µM.
For the molecule `N=C(N)C(F)(F)C(F)(F)C(F)(F)C(F)(F)C(F)(F)C(F)(F)C(F)(F)F` [Perfluorooctanamidine], the POD vs vehicle was greater than 100 µM.

Another assay concerns 1368 (donor line of iPSC-derived cardiomyocytes). Described as above. As to conditions: exposure time: 90 min. The procedure:
as §1
`OCC(F)(F)C(F)(F)C(F)(F)C(F)F` [1H,1H,5H-Perfluoropentanol]: the POD vs vehicle is greater than 100 µM.
Still for that read-out and setting: under `O=S(=O)(OCC(F)(F)F)C(F)(F)C(F)(F)C(F)(F)C(F)(F)F` [2,2,2-Trifluoroethyl_perfluorobutanesulfonate] stands greater than 100 µM.
For `OCCC(F)(F)C(F)(F)C(F)(F)C(F)(F)F` [4:2 Fluorotelomer alcohol], the POD vs vehicle is greater than 100 µM.
The same measure, in the same setting: under `OCC(F)(F)C(F)(F)C(F)(F)C(F)(F)C(F)(F)C(F)(F)F` [6:1 Fluorotelomer alcohol] stands greater than 100 µM.
Still for that read-out and setting: under `O=C([O-])C(F)(F)C(F)(F)C(F)(F)C(F)(F)C(F)(F)C(F)(F)C(F)(F)F.[NH4+]` [Ammonium_perfluorooctanoate] stands greater than 100 µM; under `OCC(F)(F)OC(F)(F)C(F)(F)OC(F)(F)C(F)(F)OC(F)(F)F` [Fluorinated_triethylene_glycol_monomethyl_ether], greater than 100 µM; under `NC(=O)C(F)(F)C(F)(F)C(F)(F)F` [Heptafluorobutyramide], greater than 100 µM.
The same measure, in the same setting: under `O=C(O)C(F)(F)C(F)(F)C(F)(F)C(F)(F)C(=O)O` [Octafluoroadipic_acid] stands greater than 100 µM.
As for `O=C(O)C(F)(F)OC(F)(F)C(F)(F)OC(F)(F)C(F)(F)OC(F)(F)C(F)(F)C(F)(F)C(F)(F)F` [Perfluoro-3,6,9-trioxatridecanoic_acid], the POD vs vehicle was greater than 100 µM.
Same read-out and setting: under `O=C(O)C(F)(F)C(F)(F)C(F)(F)C(F)(F)C(F)(F)C(F)(F)F` [Perfluoroheptanoic_acid] stands greater than 100 µM.
Same read-out and setting: under `NC(=O)C(F)(F)C(F)(F)C(F)(F)C(F)(F)C(F)(F)C(F)(F)C(F)(F)F` [Perfluorooctanamide] stands greater than 100 µM.
Still for that read-out and setting: next, `N=C(N)C(F)(F)C(F)(F)C(F)(F)C(F)(F)C(F)(F)C(F)(F)C(F)(F)F` [Perfluorooctanamidine]: greater than 100 µM.

The subject of the next assay is 11235 (donor line of iPSC-derived cardiomyocytes). Described as above. The settings on record: exposure time: 90 min. As to the method: as §1
For `OCC(F)(F)C(F)(F)C(F)(F)C(F)F` [1H,1H,5H-Perfluoropentanol], the POD vs vehicle was greater than 100 µM.
Same read-out and setting: next, `O=S(=O)(OCC(F)(F)F)C(F)(F)C(F)(F)C(F)(F)C(F)(F)F` [2,2,2-Trifluoroethyl_perfluorobutanesulfonate]: greater than 100 µM; `OCCC(F)(F)C(F)(F)C(F)(F)C(F)(F)F` [4:2 Fluorotelomer alcohol]: greater than 100 µM; `OCC(F)(F)C(F)(F)C(F)(F)C(F)(F)C(F)(F)C(F)(F)F` [6:1 Fluorotelomer alcohol]: greater than 100 µM.
Molecule `O=C([O-])C(F)(F)C(F)(F)C(F)(F)C(F)(F)C(F)(F)C(F)(F)C(F)(F)F.[NH4+]` [Ammonium_perfluorooctanoate] came in with a POD vs vehicle greater than 100 µM.
`OCC(F)(F)OC(F)(F)C(F)(F)OC(F)(F)C(F)(F)OC(F)(F)F` [Fluorinated_triethylene_glycol_monomethyl_ether] yielded a POD vs vehicle greater than 100 µM.
Same read-out and setting: under `NC(=O)C(F)(F)C(F)(F)C(F)(F)F` [Heptafluorobutyramide] stands greater than 100 µM.
On to `O=C(O)C(F)(F)C(F)(F)C(F)(F)C(F)(F)C(=O)O` [Octafluoroadipic_acid], for which the POD vs vehicle is greater than 100 µM.
As for `O=C(O)C(F)(F)OC(F)(F)C(F)(F)OC(F)(F)C(F)(F)OC(F)(F)C(F)(F)C(F)(F)C(F)(F)F` [Perfluoro-3,6,9-trioxatridecanoic_acid], the POD vs vehicle was greater than 100 µM.
Turning to `O=C(O)C(F)(F)C(F)(F)C(F)(F)C(F)(F)C(F)(F)C(F)(F)F` [Perfluoroheptanoic_acid], the POD vs vehicle is greater than 100 µM.
Same read-out and setting: under `NC(=O)C(F)(F)C(F)(F)C(F)(F)C(F)(F)C(F)(F)C(F)(F)C(F)(F)F` [Perfluorooctanamide] stands greater than 100 µM; under `N=C(N)C(F)(F)C(F)(F)C(F)(F)C(F)(F)C(F)(F)C(F)(F)C(F)(F)F` [Perfluorooctanamidine], greater than 100 µM.

A further assay deals with 20084 (donor line of iPSC-derived cardiomyocytes). Described as above. As to conditions: exposure time: 90 min. As to the method:
as §1
In the case of `OCC(F)(F)C(F)(F)C(F)(F)C(F)F` [1H,1H,5H-Perfluoropentanol], the POD vs vehicle is greater than 100 µM.
Still for that read-out and setting: next, `O=S(=O)(OCC(F)(F)F)C(F)(F)C(F)(F)C(F)(F)C(F)(F)F` [2,2,2-Trifluoroethyl_perfluorobutanesulfonate]: greater than 100 µM; `OCCC(F)(F)C(F)(F)C(F)(F)C(F)(F)F` [4:2 Fluorotelomer alcohol]: greater than 100 µM.
On the same count and under the same terms, next, `OCC(F)(F)C(F)(F)C(F)(F)C(F)(F)C(F)(F)C(F)(F)F` [6:1 Fluorotelomer alcohol]: greater than 100 µM; `O=C([O-])C(F)(F)C(F)(F)C(F)(F)C(F)(F)C(F)(F)C(F)(F)C(F)(F)F.[NH4+]` [Ammonium_perfluorooctanoate]: greater than 100 µM; `OCC(F)(F)OC(F)(F)C(F)(F)OC(F)(F)C(F)(F)OC(F)(F)F` [Fluorinated_triethylene_glycol_monomethyl_ether]: 0.358 µM.
Same read-out and setting: next, `NC(=O)C(F)(F)C(F)(F)C(F)(F)F` [Heptafluorobutyramide]: greater than 100 µM; `O=C(O)C(F)(F)C(F)(F)C(F)(F)C(F)(F)C(=O)O` [Octafluoroadipic_acid]: greater than 100 µM.
On to `O=C(O)C(F)(F)OC(F)(F)C(F)(F)OC(F)(F)C(F)(F)OC(F)(F)C(F)(F)C(F)(F)C(F)(F)F` [Perfluoro-3,6,9-trioxatridecanoic_acid], for which the POD vs vehicle is greater than 100 µM.
